Values after ≈ are worked out from the molar mass of the structure shown.
Columns and labels:
M. smegmatis MC2155 = assay: toxicity to M. smegmatis (growth suppression, MIC); format: cell-based; conditions: for suppression of growth of M. smegmatis: M. smegmatis MC2155
Experimental: To determine if the results in the S. coelicolor based assay had relevance to Mycobacteria, all fourteen compounds were tested for toxicity to M. smegmatis MC2155, a surrogate of M. tuberculosis. […] Three of these inhibitory compounds were trans-disubstituted β-lactones with unbranched alkyl substituents on both the α- and β-carbons (β-lactones 2-4). For these molecules, there was a positive correlation between the length of the alkyl group on the α-carbon and antibacterial activity. […] The compounds were subsequently shown to be inhibitors of ClpP in vitro. In Mycobacteria, ClpP inhibition is associated with killing. Previous reports of ClpP inhibition generally described suppression of virulence in pathogenic bacteria (S. aureus and L. monocytogenes).

[1] = test system: S. coelicolor strain with the neo reporter gene; assay: neo reporter strain assay (kanamycin resistance under PopR-dependent promoter); format: cell-based, S. coelicolor M145; conditions: DNAgar, 10 μg/mL kanamycin, optical density at 48 hrs
M. tuberculosis H37Rv = assay: toxicity to M. tuberculosis (growth inhibition, MIC); format: cell-based

Row | SMILES | suppression of growth of M. smegmatis (M. smegmatis MC2155) | growth of reporter strain on media supplemented with kanamycin [1] | inhibition of growth of M. tuberculosis H37Rv (M. tuberculosis H37Rv) | MIC (M. tuberculosis H37Rv; Mycobacterium tuberculosis, H37RV, M. tuberculosis) | MIC (M. smegmatis MC2155; Mycolicibacterium smegmatis, MC2155, M. smegmatis)
1 | CCCCCCCC1C(=O)OC1CCC (stereo not drawn) [Compound 3] | suppressed the growth of M. smegmatis | enabled the reporter strain to grow on media supplemented with kanamycin |  |  | 
2 | C=CCCCCCCCC1C(=O)OC1CCC (stereo not drawn) [Compound 4] | suppressed the growth of M. smegmatis | enabled the reporter strain to grow on media supplemented with kanamycin | inhibited growth of M. tuberculosis H37Rv |  | 
3 | CCCCCC1C(=O)OC1CCC (stereo not drawn) [Compound 2] | suppressed the growth of M. smegmatis | enabled the reporter strain to grow on media supplemented with kanamycin |  |  | 
4 | CCCC1OC(=O)C1Cc1ccccc1 (stereo not drawn) [Compound 7] | suppressed the growth of M. smegmatis | enabled the reporter strain to grow on media supplemented with kanamycin | inhibited growth of M. tuberculosis H37Rv | 28 µg/mL (≈ 137 µM) | 10 µg/mL (≈ 49 µM)
